According to patent publication US10532084B2, “Chondrocyte extracellular matrix-derived peptide” (EYEBIO KOREA, priority 2016, dated 2020):
Entries after “also recorded” stand apart in the source; their conditions may differ.

Tests used:
CD31, FGF and VEGF = conditions: rabbit alkaline burn; 10 days treatment; immunostaining
Experimental: (§1) The rabbits were randomly divided into an alkaline burn group (n=5) and a peptide treated group (n=5). In the alkaline burn group, normal saline was administered 4 times daily and in the peptide-treated group, Hyp-[…] peptide of 10 mg/mL was administered 4 times daily, and the left eye was used as a control group.
(§2) Tissue sections were cut into 6 μm thickness and used for immunohistochemical analysis.
(§3) First, tissue sections were fixed with 3.5% paraformaldehyde and permeated with 0.1% Triton X-100, inactivated 2% bovine serum albumin (BSA; all from Sigma, St. Louis, Mo.) and incubated overnight at 4° C. with anti-CD31(1:1,000; Abcam Inc., Cambridge, Mass.), anti-bFGF(1:1,000; Bioss Inc., Woburn, Mass.), anti-IL-1β, anti-IL-6(1:1,000; Cloud-Clone Corp., Houston, Tex.), anti-MMP-9, anti-ICMA-1, anti-TNFα, anti-macrophage/mononucleus (1:1,000; Abnova Crop., Taipei, Taiwan) and anti-VEGF-A (Abbiotec, San Diego, Calif.) primary antibody.
(§4) Thereafter, the secondary antibody was incubated for 45 minutes in the section and the immunological response was visualized with diaminobenzidine (DAB) chromogen, and the section was contrast-stained with Mayer's hematoxylin (Sigma) for 30 seconds at room temperature.
(§5) The dyed sections were photographed by a virtual microscope (NanoZoomer 2.0 RS, Hamamatsu, Japan).

[1] = system: macrophages, TNFα, ICAM-1, IL-1β, IL-6 and MMP-9; conditions: rabbit alkaline burn; 10 days treatment; immunostaining
Experimental: as §1, §2, §3, §4, §5

[2] = system: human vascular endothelial cells (HUVEC); assay: Tubing assay (VEGF-induced tube formation); assay type: cell-based; conditions: 4 hours
Experimental: The antiangiogenic effect of hydroxy proline-GQDGLAGPK was confirmed by tubing assay using human vascular endothelial cells (HUVEC).
HUVEC cells were stained with calcein-AM and then dispensed on a Matrigel-coated 48-well plate, treated with collagen, CPI and CPII at concentrations together with 50 ng/ml of recombinant human VEGF, and after 4 hours of incubation at 37° C., tube formation was observed by fluorescence microscopy (Leica) and tube length was analyzed by Image lab software (Bio-Rad Laboratories).
Tubing assay using human vascular endothelial cells (HUVEC) was performed to confirm the anti-angiogenic effect of hydroxyl proline-GQDGLAGPK.

corneal epithelial cell = assay: Corneal epithelial cell detachment (H&E), dry eye model; assay type: in vivo, NOD.B10.H2b mice
Experimental: (§6) NOD.B10.H2^b mice were purchased from Jackson Laboratory (Bar Harbor, Me., USA). Animal experiments were carried out in accordance with the guidelines approved by the University of Inje (No.; 2014-029) and ARVO regarding animal use for eye and vision research. NOD.B10.H2^b mice at 12-16 weeks old were exposed to 40-50% ambient humidity and ventilation using a fan for 18 hours a day as dry stress and subcutaneously injected with 0.5 mg/0.2 mL muscarinic receptor blocker. In addition, scopolamine hydrobromide (Sigma-Aldrich, St. Louis, Mo.) was injected alternately to the […] hips four times a day for 10 days at 9 am, […].
(§7) After 10 days of ocular dry stress, the scopolamine injection was stopped, and switched to a normal humidity and temperature environment and the dry stress was removed, 10 mg/ml Hyp-[…] and collagen were dissolved in normal saline to administer 5 μL each 5 times a day for 10 days, and normal saline and 0.1% HA were administered to the eyeball 5 times a day for 10 days. Three mice were used in each of the six experimental groups using both eyes of the mice and all experiments were repeated.

[3] = system: choroidal neovascularization (CNV); assay: Laser-induced choroidal neovascularization (CNV), lesion size by retina-choroid flat-mount; assay type: in vivo, C57BL/6 mice; conditions: mouse, laser irradiation
Experimental: C57BL/6 mice were purchased from Orient Bio and the animal experiments was carried out in accordance with the guidelines approved by the University of Inje (No, 2013-053) and ARVO regarding animal use for eye and vision studies. 6-week-old C57BL/6 mice were treated with diode green laser (532 nm, 150 mW, 0.1 sec, […], photocoagulator) to damage the retinal optic nerve area. […] The above experiment for each experiment group was performed using both eyes of five mice each. […]
The mouse was anesthetized and injected with 25 mg/ml of FITC-dextran in […] of retro-orbital. After 30 minutes, the mouse was euthanized and the eyeball was extracted and fixed with 10% formalin and then, the cornea and lens were removed and flat mounted on the cover glass. The neovasculature stained with FITC-dextran was observed by fluorescence microscopy (Leica) and the lesion size was measured by Image J program. […]

[4] = system: rabbit cornea burned with alkali; conditions: rabbit alkaline burn
Experimental: as §1

[5] = Tear amount by phenol red-impregnated cotton threads, dry eye model; assay type: in vivo, NOD.B10.H2b mice
Experimental: Tear production was measured by a method reported using phenol red-impregnated cotton threads (Zone-Quick, Oasis, Glendora, Calif.) (Villareal A L, Farley W, Pflugfelder S C. Effect of topical ophthalmic epinastine and olopatadine on tear volume in mice. Eye Contact Lens. 2006; 32 (6): 272-276.). […] The measured lachrymal fluid in the millimeter was compared with a standard curve expressed as a cotton thread which was soaked with the expected tear amount of mouse of basic solution ([…] of 0.9% salt and 5 mL of 5 N NaOH) for 20 seconds.
The degree of tear generation was measured by phenol red-impregnated cotton threads.

[6] = system: conjunctival goblet cells; assay: Distribution of conjunctival goblet cells (PAS staining), dry eye model; assay type: in vivo, NOD.B10.H2b mice
Experimental: as §6, §7
The distribution of conjunctival goblet cells according to eye drop in dry eye mice was observed.

Substance: hydroxy proline-GQDGLAGPK [Hyp-GQDGLAGPK]
- expression of CD31, FGF and VEGF in epithelium, subepithelium and matrix (CD31, FGF and VEGF): significant decreases
- expression of MMP-9 in the cornea [1]: inhibited
- expression of inflammatory factors TNFα, IL-1β, IL-6 and ICAM-1 [1]: decreased
- expression of macrophages in the cornea [1]: effectively inhibited
- concentration dependence of tube formation inhibition ([2]; 50 ng/ml VEGF): concentration-dependent manner
- tube formation compared with the VEGF-untreated group ([2]; 50 ng/ml VEGF): decreased to almost same extent of angiogenesis of the VEGF-untreated group
- inhibition of tube formation (angiogenesis) ([2]; 50 ng/ml recombinant human VEGF, listed as CPII): significant inhibition of angiogenesis; also recorded: best anti-angiogenic efficacy; also recorded: best anti-angiogenic ability
- reduction of corneal epithelial cell detachment vs CsA group (corneal epithelial cell; 10 days of treatment): 75%
- reduction of corneal epithelial cell detachment vs DQS group (corneal epithelial cell; 10 days of treatment): 60%
- reduction of corneal epithelial cell detachment vs HA group (corneal epithelial cell; 10 days of treatment): 77.8%
- reduction of corneal epithelial cell detachment vs collagen group (corneal epithelial cell; 10 days of treatment): 55.6%
- reduction of corneal epithelial cell detachment vs dry stress (DS 10D) (corneal epithelial cell; 10 days of treatment): 83.3%
- reduction of corneal epithelial cell detachment vs normal saline group (corneal epithelial cell; 10 days of treatment): 71.4%
- corneal epithelial cell detachment (corneal epithelial cell; 10 days of treatment after removal of dry stress, DS 10D 2.29±0.57): 0.38±0.17 /0.1 mm^2
- CNV lesions ([3]; 2 μg intraocular injection for 5 days, listed as CPII): reduced; also recorded: decreased
- CNV lesion size vs control group ([3]; 5 μg intraocularly for 5 consecutive days, 14 days after laser, FITC-dextran flat-mount): significantly decreased
- corneal neovascularization in H&E stained tissue ([4]; 10 days treatment): neovascularization was significantly improved
- histological changes of the cornea (epithelial proliferation, inflammatory cell invasion, edema, neovascularization) ([4]; 10 days treatment, H&E): showed an advanced improvement effect
- corneal thickness ([4]; after 10 days of peptide treatment, normal 526.6, alkaline burn 960.6): 550.0 μm
- tear amount increase vs DS 10D group ([5]; 10 days after treatment): 7.9 times
- tear amount relative to CsA treatment group ([5]; 10 days after treatment): 1.7 times
- tear amount relative to DQS treatment group ([5]; 10 days after treatment): 1.4 times
- tear amount relative to HA treatment group ([5]; 10 days after treatment): 1.6 times
- tear amount relative to collagen positive control group ([5]; 10 days after treatment): about 1.7 times
- tear amount relative to normal saline negative control group ([5]; 10 days after treatment): about 2.8 times
- tear amount ([5]; 10 days of treatment after removal of dry stress, normal 0.22±0.01, DS 10D 0.03±0.01): 0.23 ± 0.02 µL
- goblet cell recovery vs dry stress (DS 10D) ([6]; 10 days of treatment): 2.3 times
- goblet cells relative to CsA group ([6]; 10 days of treatment): 1.2 times
- goblet cells relative to DQS group ([6]; 10 days of treatment): 1.5 times
- goblet cells relative to HA group ([6]; 10 days of treatment): 1.6 times
- goblet cells relative to collagen group ([6]; 10 days of treatment): 1.3 times
- goblet cells relative to normal saline group ([6]; 10 days of treatment): 2.6 times
- distribution of goblet cells in the conjunctiva (in words) ([6]; 10 days of treatment after removal of dry stress): significantly increased
- conjunctival goblet cells ([6]; 10 days of treatment after removal of dry stress, normal 14.38±0.44, DS 10D 6.02±0.29): 13.9±0.83 /0.1 mm^2
